Laboratory results from patent publication US20060057181A1, “Method for determining the gastric evacuation using a 13c-labelled test meal” (priority 2002, published 2006).

Test: 13C-octanoic acid breath test of gastric emptying: 13CO2 excretion in exhaled respiratory air measured by IRMS after test meal
Protocol: The thus formed ^13CO2 is then measured in the exhaled respiratory air by means of IRMS. IRMS (isotope ratio mass spectrography) has in the meantime become the most sensitive and best method for determining ^13CO2 in the exhaled respiratory air.
Therefore, the sampling and optimum calculation take three to four hours. The interval for sampling is optimal at 15 min.
Further, the patient need not sit calmly between the measuring devices for radioactivity. Rather, it is sufficient if they blow samples of their respiratory air into collecting devices every 12 minutes. For example, the so-called vacutainerss are particularly suitable for this purpose. These samples of the exhaled respiratory air may then be measured and evaluated in a central laboratory with a correspondingly sensitive IRMS equipment.

SMILES: CCCCCCC[13C](=O)O [^13C-octanoic acid]
- maximum of 13CO2 excretion (normal gastric emptying (patient No. 1), free 13C-octanoic acid bound to egg yolk, oral test meal, exhaled air, IRMS): > 2.9 h
- maximum of 13CO2 excretion (somewhat faster gastric emptying (patient No. 5)): > 2.9 h
- maximum of 13CO2 excretion (very delayed gastric emptying (patient No. 4)): < 2.5 h
